The text below walks through data of patent publication US20110038885A1, “CHEMOKINE ANALOGS” (priority 2007, published 2011).

Numbered stars: 1 amine (or outer) side, 2 acyl side, 3 side chain; on linkers, the order of the positions; unused ones are H or OH. Bridge positions count the residues as written; N and C are the ends. Square brackets hold non-standard residues; d marks the D form. Peptide text beside a SMILES is read from it. * marks the point of attachment. Glutaryl = O=C(CCCC(=O)[*:2])[*:1]; 2Naphthoyl = O=C(c1ccc2ccccc2c1)*; pGlu = O=C1CC[C@@H](C(=O)O)N1; Suc = O=C(CCC(=O)[*:2])[*:1]; Isobutyryl = CC(C)C(=O)*; Orn = NCCC[C@H](N)C(=O)O; Dab = NCC[C@H](N)C(=O)O; Dap = NC[C@H](N)C(=O)O; Aoc = NCCCCCCCC(=O)O; Butyryl = CCCC(=O)*

The test relates to MCP-1. As to the kind of experiment: In vitro chemotaxis (trans-well migration) v MCP-1. In kind it is cell-based, human. As for the experimental part:
To determine whether an agent inhibits a chemokine-induced activity, such as macrophage recruitment, varying amounts of the agent are mixed with cells in the presence of a known chemoattractant. For example, a range of known concentrations of an agent, e.g., a chemokine peptide, is incubated with a defined number (e.g., 10^4-10^6) of human THP-1 monocyte cells in individual wells of the top compartment of a trans-well plate. Chemokine, at a concentration known to cause significant migration of THP-1 cells in the trans-well migration assay, is placed in the lower compartment of a trans-well plate. Cells are then incubated at 37° C. for a period sufficient to allow migration, e.g., 4 hours. After incubation, the cells are gently removed from the top of the filter with a pipette, 20 μl of 20 mM EDTA in simple PBS is added into each top well, and incubated for 20 minutes at 4° C. The filter is carefully flushed with media using a gentle flow, and removed. A standard curve consisting of a two-fold dilution series of THP-1 cells (in 29 μl) is placed to accurately quantify the number of cells that have migrated. Migrated cells are stained with 3 μl of MTT stock dye solution which is added directly into each well (5 mg/ml in RPMI-1640 without phenol red) (Sigma Chemical Co., St. Louis, Mo., USA) and incubated at 37° C. for 4 hours. The media is carefully aspirated from each well, and the converted dye is solubilized by 20 μl of DMSO. Absorbance of converted dye is measured at a wavelength of 595 nm using an ELISA plate reader. The number of migrated cells in each well is then determined by interpolation of the standard curve (see also Imai et al., J. Biol. Chem., 272:15036, 1997). Any method suitable for counting cells can be used, for example, counting with a hemocytometer, incubation of the cells with MTT (see above), or FACS analysis. A negative control assay is also performed, using TGFβ or another non-chemokine chemoattractant (e.g., IL1β or TNFα). To assess whether the agent is cytotoxic, the same concentrations of agent are incubated with THP-1 cells. Agents which 1) are not cytotoxic at levels which inhibit migration, 2) are ineffective at inhibiting the negative control-induced migration, and 3) reduce or inhibit chemokine-induced THP-1 migration, are agents which fall within the scope of the invention.

With `CC[C@@H](C)[C@H]1NC(=O)[C@@H](CCC(N)=O)NC(=O)[C@H](NC(C)=O)CSSC[C@H](C(N)=O)NC(=O)[C@@H](CCCCN)NC(=O)[C@@H](Cc2c[nH]c3ccccc23)NC1=O` [Example 190, Ac-c(D-Cys-D-Gln-D-Ile-D-Trp-D-Lys-D-Cys)-NH2] (Ac-[dC][dQ][dI][dW][dK][dC]-NH2; disulfide 1-6), the EC50 amounted to 30 nM.
The figure for `CC[C@H](C)[C@@H]1NC(=O)[C@H](Cc2c[nH]c3ccccc23)NC(=O)[C@H](CCCCN)NC(=O)[C@@H](NC(C)=O)CCCCNC(=O)C[C@@H](C(N)=O)NC(=O)[C@H](CCC(N)=O)NC1=O` [Example 120, Ac-c(Lys-Lys-Trp-Ile-Gln-Asp)-NH2] (Ac-KKWIQD-NH2; lactam 1-6) is 8 nM; for `CC[C@H](C)[C@@H]1NC(=O)[C@H](Cc2c[nH]c3ccccc23)NC(=O)[C@H](CCCCN)NC(=O)[C@@H](NC(=O)C(C)C)CSSC[C@@H](C(N)=O)NC(=O)[C@H](CCC(N)=O)NC1=O` [Example 58, Isobutyryl-c(Cys-Lys-Trp-Ile-Gln-Cys)-NH2] (Isobutyryl-CKWIQC-NH2; disulfide 1-6) it is 8 nM.
The figure for `CC[C@H](C)[C@@H]1NC(=O)[C@H](Cc2c[nH]c3ccccc23)NC(=O)[C@H](CCCCN)NC(=O)[C@H](NC(C)=O)CSSC[C@@H](C(N)=O)NC(=O)[C@H](CCC(N)=O)NC1=O` [Example 79, Ac-c(D-Cys-Lys-Trp-Ile-Gln-Cys)-NH2] (Ac-[dC]KWIQC-NH2; disulfide 1-6) is 60 nM; for `CC[C@H](C)[C@@H]1NC(=O)[C@H](Cc2c[nH]c3ccccc23)NC(=O)[C@H](CCCCN)NC(=O)[C@@H](NC(C)=O)CCNC(=O)C[C@@H](C(N)=O)NC(=O)[C@H](CCC(N)=O)NC1=O` [Example 118, Ac-c(Dab-Lys-Trp-Ile-Gln-Asp)-NH2] (Ac-[Dab]KWIQD-NH2; lactam 1-6) it is 8 nM; for `CC[C@H](C)[C@@H]1NC(=O)[C@H](Cc2c[nH]c3ccccc23)NC(=O)[C@H](CCCCN)NC(=O)CCCCCCCNC(=O)C[C@@H](C(N)=O)NC(=O)[C@H](CCC(N)=O)NC1=O` [Example 95, c(Aoc-Lys-Trp-Ile-Gln-Asp)-NH2] ([Aoc]KWIQD-NH2; lactam N-6) it is 20 nM.
As for `CC[C@H](C)[C@@H]1NC(=O)[C@H](Cc2c[nH]c3ccccc23)NC(=O)[C@H](CCCCN)NC(=O)[C@@H](NC(C)=O)CCC(=O)NC[C@@H](C(N)=O)NC(=O)[C@H](CCC(N)=O)NC1=O` [Example 113, Ac-c(Glu-Lys-Trp-Ile-Gln-Dap)-NH2] (Ac-EKWIQ[Dap]-NH2; lactam 1-6), the figure is 30 nM; as for `CC[C@H](C)[C@@H]1NC(=O)[C@H](Cc2c[nH]c3ccccc23)NC(=O)[C@H](CCCCN)NC(=O)[C@@H](NC(=O)[C@@H](CCC(N)=O)NC(C)=O)CSSC[C@@H](C(N)=O)NC(=O)[C@H](CCC(N)=O)NC1=O` [Example 3, Ac-DGln-c(Cys-Lys-Trp-Ile-Gln-Cys)-NH2] (Ac-[dQ]CKWIQC-NH2; disulfide 2-7), 6 nM.
As for `CCCC(=O)N[C@H]1CSSC[C@@H](C(N)=O)NC(=O)[C@H](CCC(N)=O)NC(=O)[C@H]([C@@H](C)CC)NC(=O)[C@H](Cc2c[nH]c3ccccc23)NC(=O)[C@H](CCCCN)NC1=O` [Example 56, nButyryl-c(Cys-Lys-Trp-Ile-Gln-Cys)-NH2] (Butyryl-CKWIQC-NH2; disulfide 1-6), a half-maximal response (EC50) required 25 nM.
`CC[C@H](C)[C@@H]1NC(=O)[C@H](Cc2c[nH]c3ccccc23)NC(=O)[C@H](CCCCN)NC(=O)[C@@H](NC(=O)[C@@H]2CCC(=O)N2)CSSC[C@@H](C(N)=O)NC(=O)[C@H](CCC(N)=O)NC1=O` [Example 52, pGlu-c(Cys-Lys-Trp-Ile-Gln-Cys)-NH2] ([pGlu]CKWIQC-NH2; disulfide 2-7) had an EC50 of 25 nM.
As for `CC[C@H](C)[C@@H]1NC(=O)[C@H](Cc2c[nH]c3ccccc23)NC(=O)[C@H](CCCCN)NC(=O)[C@@H](NC(C)=O)CCCNC(=O)C[C@@H](C(N)=O)NC(=O)[C@H](CCC(N)=O)NC1=O` [Example 119, Ac-c(Orn-Lys-Trp-Ile-Gln-Asp)-NH2] (Ac-[Orn]KWIQD-NH2; lactam 1-6), the figure is 8 nM; as for `CC[C@H](C)[C@@H]1NC(=O)[C@H](Cc2c[nH]c3ccccc23)NC(=O)[C@H](CCCCN)NC(=O)[C@@H](NC(=O)c2ccc3ccccc3c2)CSSC[C@@H](C(N)=O)NC(=O)[C@H](CCC(N)=O)NC1=O` [Example 69, 2-Naphthoyl-c(Cys-Lys-Trp-Ile-Gln-Cys)-NH2] (2Naphthoyl-CKWIQC-NH2; disulfide 1-6), 15 nM; as for `CC[C@H](C)[C@@H]1NC(=O)[C@H](Cc2c[nH]c3ccccc23)NC(=O)[C@H](CCCCN)NC(=O)CCCC(=O)NCCCC[C@@H](C(N)=O)NC(=O)[C@H](CCC(N)=O)NC1=O` [Example 129, c(Glutaryl-Lys-Trp-Ile-Gln-Lys)-NH2] (KWIQK-NH2; linker N-5 via Glutaryl), 400 nM.
As for `CC[C@H](C)[C@@H]1NC(=O)[C@H](Cc2c[nH]c3ccccc23)NC(=O)[C@H](CCCCN)NC(=O)[C@@H](NC(C)=O)CNC(=O)C[C@@H](C(N)=O)NC(=O)[C@H](CCC(N)=O)NC1=O` [Example 117, Ac-c(Dap-Lys-Trp-Ile-Gln-Asp)-NH2] (Ac-[Dap]KWIQD-NH2; lactam 1-6), the figure is 5 nM; as for `CC[C@H](C)[C@@H]1NC(=O)[C@H](Cc2c[nH]c3ccccc23)NC(=O)[C@H](CCCCN)NC(=O)[C@@H](NC(=O)C(C)C)CCNC(=O)CC[C@@H](C(N)=O)NC(=O)[C@H](CCC(N)=O)NC1=O` [Example 107, Isobutyryl-c(Dab-Lys-Trp-Ile-Gln-Glu)-NH2] (Isobutyryl-[Dab]KWIQE-NH2; lactam 1-6), 8 nM; as for `CC[C@H](C)[C@@H]1NC(=O)[C@H](Cc2c[nH]c3ccccc23)NC(=O)[C@H](CCCCN)NC(=O)CCCC(=O)NCCC[C@@H](C(N)=O)NC(=O)[C@H](CCC(N)=O)NC1=O` [Example 8, c(Glutaryl-Lys-Trp-Ile-Gln-Orn)-NH2] (KWIQ[Orn]-NH2; linker N-5 via Glutaryl), 5 nM.
With `CC(C)(C)OC(=O)N1Cc2ccccc2C[C@H]1C(=O)NCCC(=O)NC1CCC(=O)NC1=O` (stereo partly drawn) [Example 174, BOC-Tic-βAla-α-aminoglutaramide], a half-maximal effect (EC50) was put at 200 nM.
As for `CC[C@H](C)[C@@H]1NC(=O)[C@H](Cc2c[nH]c3ccccc23)NC(=O)[C@H](CCCCN)NC(=O)CCC(=O)NCCCC[C@@H](C(N)=O)NC(=O)[C@H](CCC(N)=O)NC1=O` [Example 63, c(Succinyl-Lys-Trp-Ile-Gln-Lys)-NH2] (KWIQK-NH2; linker N-5 via Suc), the figure is 66 nM; as for `CC[C@H](C)[C@@H]1NC(=O)[C@H](Cc2c[nH]c3ccccc23)NC(=O)[C@H](CCCCN)NC(=O)[C@@H](NC(=O)C(C)C)CCC(=O)NCCC[C@@H](C(N)=O)NC(=O)[C@H](CCC(N)=O)NC1=O` [Example 102, Isobutyryl-c(Glu-Lys-Trp-Ile-Gln-Orn)-NH2] (Isobutyryl-EKWIQ[Orn]-NH2; lactam 1-6), 10 nM.
`CC[C@H](C)[C@@H]1NC(=O)[C@H](Cc2c[nH]c3ccccc23)NC(=O)[C@H](CCCCN)NC(=O)[C@@H](NC(C)=O)CC(=O)NCC[C@@H](C(N)=O)NC(=O)[C@H](CCC(N)=O)NC1=O` [Example 111, Ac-c(Asp-Lys-Trp-Ile-Gln-Dab)-NH2] (Ac-DKWIQ[Dab]-NH2; lactam 1-6): the EC50 amounted to 4 nM.
The figure for `CC[C@H](C)[C@@H]1NC(=O)[C@H](Cc2c[nH]c3ccccc23)NC(=O)[C@H](CCCCN)NC(=O)[C@@H](NC(=O)C(C)C)CCC(=O)NCCCC[C@@H](C(N)=O)NC(=O)[C@H](CCC(N)=O)NC1=O` [Example 103, Isobutyryl-c(Glu-Lys-Trp-Ile-Gln-Lys)-NH2] (Isobutyryl-EKWIQK-NH2; lactam 1-6) is 8 nM; for `CC[C@H](C)[C@@H]1NC(=O)[C@H](Cc2c[nH]c3ccccc23)NC(=O)[C@H](CCCCN)NC(=O)[C@@H](NC(=O)C(C)C)CNC(=O)CC[C@@H](C(N)=O)NC(=O)[C@H](CCC(N)=O)NC1=O` [Example 7, Isobutyryl-c(Dap-Lys-Trp-Ile-Gln-Glu)-NH2] (Isobutyryl-[Dap]KWIQE-NH2; lactam 1-6) it is 5 nM.
Compound `CC[C@H](C)[C@@H]1NC(=O)[C@H](Cc2c[nH]c3ccccc23)NC(=O)[C@H](CCCCN)NC(=O)[C@@H](NC(C)=O)CCCNC(=O)CC[C@@H](C(N)=O)NC(=O)[C@H](CCC(N)=O)NC1=O` [Example 123, Ac-c(Orn-Lys-Trp-Ile-Gln-Glu)-NH2] (Ac-[Orn]KWIQE-NH2; lactam 1-6) gave an EC50 of 7 nM.

As a reminder, the EC50 is the midpoint of the concentration-response curve. Higher therefore signals lower potency in that assay.
